Test results taken from patent publication US20230416205A1, “COMPOUNDS, COMPOSITIONS, AND METHODS” (Denali Therapeutics Inc, priority 2020, published 2023).
Where two headings read alike, the source gives them in different places.

Tested on: NLRP3
Test: IL-1β secretion assay in PMA-differentiated, LPS/nigericin-stimulated THP-1 cells (384-well, ELISA read-out)
Assay type: cell-based, human
Procedure, shortened: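 Secreted IL-1β quantified by capture ELISA from supernatants of PMA-differentiated THP-1 cells (30K per well). Sequence: LPS 25 ng/mL priming 2 h, compound 1 h, nigericin 2 h; dose-responses normalized between high (LPS plus 5 μM nigericin) and low (LPS alone) controls.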

[1] = Homo sapiens, THP-1, IL-1β secretion, PMA-differentiated THP-1 cells, LPS then nigericin stimulation, ELISA read at 450 nm, read-out: Activity
[2] = Homo sapiens, THP-1, Table 4, IL-1β secretion, LPS/nigericin-stimulated THP-1 cells, read-out: IC50
[3] = Table 4, IL-1β secretion, LPS/nigericin-stimulated THP-1 cells, read-out: IC50
[4] = IL-1β secretion, PMA-differentiated THP-1 cells, LPS then nigericin stimulation, ELISA read at 450 nm, read-out: Activity

| SMILES | IC50 [1] | IC50 [2] | IC50 [3] | IC50 [4] |
| --- | --- | --- | --- | --- |
| O=C(CN1CC2(CC2)c2cc(Br)ccc2C1=O)Nc1ccc2c(c1)OC(F)(F)O2 [Example 157, 2-(6-bromo-1-oxospiro[3H-isoquinoline-4,1′-cyclopropane]-2-yl)-N-(2,2-difluoro-1,3-benzodioxol-5-yl)acetamide] | < 10 µM | 9.98 µM | – | – |
| O=C(CN1C[C@]2(C[C@H]2F)c2cc(I)ccc2C1=O)Nc1ncccn1 [Example 247] | < 10 µM | 0.01 µM | – | – |
| O=C(CN1CC2(CC2)c2cc(Br)ccc2C1=O)NCC(O)c1ccc(F)cc1 (stereo not shown) [Example 132, 2-(6-bromo-1-oxospiro[3H-isoquinoline-4,1′-cyclopropane]-2-yl)-N-[2-(4-fluorophenyl)-2-hydroxyethyl]acetamide] | > 15 µM | 29.7 µM | – | – |
| COc1ccc2nc(NC(=O)CN3CC4(CC4)c4cc(Br)ccc4C3=O)nn2c1 [Example 262, 2-(6-bromo-1-oxospiro[3H-isoquinoline-4,1′-cyclopropane]-2-yl)-N-(6-methoxy-[1,2,4]triazolo[1,5-a]pyridin-2-yl)acetamide] | < 10 µM | 0.253 µM | – | – |
| O=C(CN1CC2(CC2)c2cc(Br)ccc2C1=O)NC1CCN(c2cccnn2)CC1 [Example 387, 2-(6-bromo-1-oxospiro[3H-isoquinoline-4,1′-cyclopropane]-2-yl)-N-(1-pyridazin-3-ylpiperidin-4-yl)acetamide] | – | 5.29 µM | – | – |
| O=C(CN1CC2(CC2(F)F)c2c(ccc(Br)c2F)C1=O)Nc1ncc(Cl)cn1 (single isomer, unassigned) [Example 317, 2-[6-bromo-1′,1′,5-trifluoro-1-oxospiro[3H-isoquinoline-4,2′-cyclopropane]-2-yl]-N-(5-chloropyrimidin-2-yl)acetamide] | – | – | 8.51 µM | – |
| O=C(CN1CC2(CC2)c2cc(Br)ccc2C1=O)Nc1nnc2ccccc2n1 [Example 352, N-(1,2,4-benzotriazin-3-yl)-2-(6-bromo-1-oxospiro[3H-isoquinoline-4,1′-cyclopropane]-2-yl)acetamide] | – | 6.08 µM | – | – |
| Cn1cc(N2CCCC(NC(=O)CN3CC4(CC4)c4cc(Br)ccc4C3=O)C2)cn1 (stereo not shown) [Example 417, 2-(6-bromo-1-oxospiro[3H-isoquinoline-4,1′-cyclopropane]-2-yl)-N-[1-(1-methylpyrazol-4-yl)piperidin-3-yl]acetamide] | – | 11.7 µM | – | – |
| Cn1cnc(NC(=O)CN2CC3(CC3)c3cc(Br)ccc3C2=O)n1 [Example 371, 2-(6-bromo-1-oxospiro[3H-isoquinoline-4,1′-cyclopropane]-2-yl)-N-(1-methyl-1,2,4-triazol-3-yl)acetamide] | – | 1.46 µM | – | – |
| N#CC1(c2ccc3c(c2)C2(CC2)CN(CC(=O)Nc2ncc(F)cn2)C3=O)CC1 [Example 93, 2-[6-(1-cyanocyclopropyl)-1-oxospiro[3H-isoquinoline-4,1′-cyclopropane]-2-yl]-N-(5-fluoropyrimidin-2-yl)acetamide] | < 10 µM | 2.28 µM | – | – |
| CC1(C)CN=C(NC(=O)CN2CC3(CC3)c3cc(Br)ccc3C2=O)O1 [Example 353, 2-(6-bromo-1-oxospiro[3H-isoquinoline-4,1′-cyclopropane]-2-yl)-N-(5,5-dimethyl-4H-1,3-oxazol-2-yl)acetamide] | – | 5.42 µM | – | – |
| O=C(CN1CC2(CC2)c2cc(Br)ccc2C1=O)Nc1cnc2ccccc2c1 [Example 131, 2-(6-bromo-1-oxospiro[3H-isoquinoline-4,1′-cyclopropane]-2-yl)-N-quinolin-3-ylacetamide] | < 10 µM | 7.7 µM | – | – |
| CC1(O)CCN(C(=O)CN2CC3(CC3)c3cc(Br)ccc3C2=O)C1 (stereo not shown) [Example 68, 6-bromo-2-[2-(3-hydroxy-3-methyl-pyrrolidin-1-yl)-2-oxo-ethyl]spiro[3H-isoquinoline-4,1′-cyclopropane]-1-one] | > 15 µM | 28.6 µM | – | – |
| C[C@H]1C[C@]12CN(CC(=O)Nc1ncc(F)cn1)C(=O)c1ccc(Br)cc12 (single isomer, unassigned) [Example 280, 2-[(2′s,4s)-6-bromo-2′-methyl-1-oxospiro[3H-isoquinoline-4,1′-cyclopropane]-2-yl]-N-(5-fluoropyrimidin-2-yl)acetamide] | – | – | 2.37 µM | < 10 µM |
| O=C(CN1CC2(CC2)c2c(ccc(I)c2F)C1=O)Nc1ncc(F)cn1 [Example 108, 2-(5-fluoro-6-iodo-1-oxospiro[3H-isoquinoline-4,1′-cyclopropane]-2-yl)-N-(5-fluoropyrimidin-2-yl)acetamide] | < 10 µM | 0.018 µM | – | – |
| O=C(CN1CC2(CC2(F)F)c2c(ccc(Br)c2F)C1=O)Nc1ncc(F)cn1 (single isomer, unassigned) [Example 288, N-(5-fluoropyrimidin-2-yl)-2-[6-bromo-1′,1′,5-trifluoro-1-oxospiro[3H-isoquinoline-4,2′-cyclopropane]-2-yl]acetamide] | 10 to 15 µM | – | 15.4 µM | – |
| O=C(CN1CC2(CC2)c2cc(Br)ccc2C1=O)Nc1nc2ccc(F)cn2n1 [Example 263, 2-(6-bromo-1-oxospiro[3H-isoquinoline-4,1′-cyclopropane]-2-yl)-N-(6-fluoro-[1,2,4]triazolo[1,5-a]pyridin-2-yl)acetamide] | < 10 µM | 0.281 µM | – | – |
| O=C(CN1C[C@@]2(C[C@@H]2F)c2cc(C(F)(F)F)ccc2C1=O)Nc1ncc(Cl)cn1 (single isomer, unassigned) [Example 239, N-(5-chloropyrimidin-2-yl)-2-[(2′s,4r)-2′-fluoro-1-oxo-6-(trifluoromethyl)spiro[3H-isoquinoline-4,1′-cyclopropane]-2-yl]acetamide] | – | – | 0.037 µM | < 10 µM |
| Cc1nc(NC(=O)CN2CC3(CC3)c3cc(Br)ccc3C2=O)nn1-c1ccccc1 [Example 412, 2-(6-bromo-1-oxospiro[3H-isoquinoline-4,1′-cyclopropane]-2-yl)-N-(5-methyl-1-phenyl-1,2,4-triazol-3-yl)acetamide] | – | 3.17 µM | – | – |
| O=C(CN1CC2(CC2)c2cc(Br)ccc2C1=O)NC1CCNC1=O (stereo not shown) [Example 406, 2-(6-bromo-1-oxospiro[3H-isoquinoline-4,1′-cyclopropane]-2-yl)-N-(2-oxopyrrolidin-3-yl)acetamide] | – | 16.1 µM | – | – |
| N#Cc1cnc(NC(=O)CN2C[C@@]3(C[C@@H]3F)c3cc(C(F)(F)F)ccc3C2=O)nc1 (single isomer, unassigned) [Example 237, N-(5-cyanopyrimidin-2-yl)-2-[(2′s,4r)-2′-fluoro-1-oxo-6-(trifluoromethyl)spiro[3H-isoquinoline-4,1′-cyclopropane]-2-yl]acetamide] | – | – | 0.061 µM | < 10 µM |
| CC1CC(NC(=O)CN2CC3(CC3)c3cc(Br)ccc3C2=O)C1 (stereo not shown) [Example 52, 2-(6-bromo-1-oxo-spiro[3H-isoquinoline-4,1′-cyclopropane]-2-yl)-N-(3-methylcyclobutyl)acetamide] | < 10 µM | 2.08 µM | – | – |
| O=C(CN1CC2(CC2)c2cc(Br)ccc2C1=O)Nc1ncc(F)cc1F [Example 38, 2-(6-bromo-1-oxo-spiro[3H-isoquinoline-4,1′-cyclopropane]-2-yl)-N-(3,5-difluoro-2-pyridyl)acetamide] | – | – | 0.449 µM | < 10 µM |
| O=C(CN1C[C@@]2(C[C@@H]2F)c2cc(C(F)(F)F)ccc2C1=O)Nc1ncccn1 (single isomer, unassigned) [Example 241, 2-[(2′s,4r)-2′-fluoro-1-oxo-6-(trifluoromethyl)spiro[3H-isoquinoline-4,1′-cyclopropane]-2-yl]-N-pyrimidin-2-ylacetamide] | – | – | 0.134 µM | < 10 µM |
